Measurements: patent US20140011799A1 (Bristol-Myers Squibb Company, priority 2012, published 2014)

Columns and labels:
hepatic lipase (HL) = target: T1, hepatic lipase (HL) (Homo sapiens, UniProt P11150); test: Hepatic lipase (HL) enzymatic assay, fluorescent substrate A10070 in DMPG vesicles; assay type: biochemical; details: HL partially purified from conditioned media of COS cells; compound preincubated 30 min at 37° C; read-out: HL IC50
T1 construct: made in house; host or cells: COS cells (conditioned medium, partially purified)
T1 sequence (P11150 23-499): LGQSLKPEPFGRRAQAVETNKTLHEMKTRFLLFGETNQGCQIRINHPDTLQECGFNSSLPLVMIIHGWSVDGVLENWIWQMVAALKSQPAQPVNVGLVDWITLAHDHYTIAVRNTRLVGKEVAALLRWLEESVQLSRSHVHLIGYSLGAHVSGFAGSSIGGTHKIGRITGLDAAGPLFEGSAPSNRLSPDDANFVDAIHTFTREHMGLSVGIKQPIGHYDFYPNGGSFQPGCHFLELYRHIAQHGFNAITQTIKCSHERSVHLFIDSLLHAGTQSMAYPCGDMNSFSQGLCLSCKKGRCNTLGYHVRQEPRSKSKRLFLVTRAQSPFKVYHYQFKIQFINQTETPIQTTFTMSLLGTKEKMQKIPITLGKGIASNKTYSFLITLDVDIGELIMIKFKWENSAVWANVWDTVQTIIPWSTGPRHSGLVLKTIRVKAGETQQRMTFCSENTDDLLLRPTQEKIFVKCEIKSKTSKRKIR
Method in brief: (§1)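 Substrate A10070 sits in sonicated DMPG vesicles at 0.11 mole fraction. Lipase and compound preincubated 30 min, 37° C, in HEPES pH 8.0 buffer with CaCl2.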

Endothelial lipase (EL) = target: T2, Endothelial lipase (EL) (Homo sapiens, UniProt Q9Y5X9); test: Endothelial lipase (EL) enzymatic assay, fluorescent substrate A10070 in DMPG vesicles; assay type: biochemical; details: EL from conditioned media of HT-1080 cells; compound preincubated 30 min at 37° C; read-out: EL IC50
T2 construct: HT-1080 cells that were transformed using RAGE technology (Athersys) to overexpress endogenous EL; endogenous in cells; conditioned medium used
T2 sequence (Q9Y5X9 21-500): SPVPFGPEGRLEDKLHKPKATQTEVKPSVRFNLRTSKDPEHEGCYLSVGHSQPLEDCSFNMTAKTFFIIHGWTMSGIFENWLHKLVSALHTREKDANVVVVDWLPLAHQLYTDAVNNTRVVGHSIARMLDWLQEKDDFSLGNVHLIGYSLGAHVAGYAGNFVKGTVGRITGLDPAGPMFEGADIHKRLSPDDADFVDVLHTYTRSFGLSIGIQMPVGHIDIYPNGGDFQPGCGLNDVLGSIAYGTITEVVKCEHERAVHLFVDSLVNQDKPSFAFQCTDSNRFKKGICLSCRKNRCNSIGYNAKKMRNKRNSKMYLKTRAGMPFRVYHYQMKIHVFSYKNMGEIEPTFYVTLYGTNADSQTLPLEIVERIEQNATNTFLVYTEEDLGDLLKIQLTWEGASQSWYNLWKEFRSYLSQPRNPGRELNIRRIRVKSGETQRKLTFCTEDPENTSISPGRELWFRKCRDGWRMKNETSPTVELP
Method in brief: as §1

Compound | IC50 (hepatic lipase (HL)) | IC50 (Endothelial lipase (EL))
NS(=O)(=O)NCc1nnc(C(c2nc3ccc(-c4cccc(C(=O)O)c4)cc3s2)S(=O)(=O)CCC(F)(F)F)o1 (stereo not shown) [Example 191, 3-(2-((5-((Sulfamoylamino)methyl)-1,3,4-oxadiazol-2-yl)((3,3,3-trifluoropropyl)sulfonyl)methyl)-1,3-benzothiazol-6-yl)benzoic acid] | 2670 nM | 15 nM
CO[C@@H]1CCN(C(=O)c2cccc(-c3ccc4nc(C(c5nnc(CC6(C)NC(=O)NC6=O)o5)S(C)(=O)=O)sc4c3)c2)C1 (stereo partly drawn) [Example 211, 5-({5-[methanesulfonyl(6-{3-[(3R)-3-methoxy-pyrrolidine-1-carbonyl]phenyl}-1,3-benzothiazol-2-yl)methyl]-1,3,4-oxadiazol-2-yl}methyl)-5-methyl-imidazolidine-2,4-dione] | 575 nM | 2 nM
CS(=O)(=O)C(c1nnc(CNS(N)(=O)=O)o1)c1nc2ccc(-c3ccc(O)nc3)cc2s1 (stereo not shown) [Example 133, N-((5-((methylsulfonyl)(6-(6-oxo-1,6-dihydro-3-pyridinyl)-1,3-benzothiazol-2-yl)methyl)-1,3,4-oxadiazol-2-yl)methyl) sulfamide] | 467 nM | 16 nM
CN1CCN(C(=O)c2cccc(-c3ccc4nc(C(c5nnc(CNS(N)(=O)=O)o5)S(=O)(=O)CCC(F)(F)F)sc4c3)c2)CC1 (stereo not shown) [Example 201, N-((5-((6-(3-((4-methyl-1-piperazinyl)carbonyl)phenyl)-1,3-benzothiazol-2-yl)((3,3,3-trifluoropropyl)sulfonyl)methyl)-1,3,4-oxadiazol-2-yl)methyl)sulfamide] | 365 nM | < 10 nM
CS(=O)(=O)C(c1nnc(CNS(N)(=O)=O)o1)c1nc2cc(-c3cncnc3)ccc2s1 (stereo not shown) [Example 247, N-[(5-{methanesulfonyl[5-(pyrimidin-5-yl)-1,3-benzothiazol-2-yl]methyl}-1,3,4-oxadiazol-2-yl)methyl]aminosulfonamide] | 43 nM | 4 nM
CC(C)NC(=O)c1cccc(-c2ccc3nc(C(c4nnc(CNS(N)(=O)=O)o4)S(C)(=O)=O)sc3c2)c1 (stereo not shown) [Example 259, 3-{2-[methanesulfonyl({5-[(sulfamoylamino)methyl]-1,3,4-oxadiazol-2-yl})methyl]-1,3-benzothiazol-6-yl}-N-(propan-2-yl) benzamide] | 37 nM | 8 nM
COCCS(=O)(=O)C(c1nnc(CNS(=O)(=O)NC(=O)OC(C)(C)C)o1)c1nc2ccc(-c3cnn(C)c3)cc2s1 (stereo not shown) [Example 115, tert-butyl (((5-(((2-methoxyethyl)sulfonyl)(6-(1-methyl-1H-pyrazol-4-yl)-1,3-benzothiazol-2-yl)methyl)-1,3,4-oxadiazol-2-yl)methyl)sulfamoyl)carbamate] | > 25000 nM | 117 nM
NS(=O)(=O)NCc1nnc(C(c2nc3ccc(-c4ccc(C(=O)N5CCOCC5)cc4)cc3s2)S(=O)(=O)CCNC(=O)OCc2ccccc2)o1 (stereo not shown) [Example 134, benzyl {2-[({6-[4-(4-morpholinylcarbonyl)phenyl]-1,3-benzothiazol-2-yl}{5-[(sulfamoylamino)methyl]-1,3,4-oxadiazol-2-yl}methyl)sulfonyl]ethyl} carbamate] | 307 nM | 20 nM
CC1(Cc2nnc(C(c3nc4ccc(-c5cccc(C(=O)N6CC[C@@H](O)C6)c5)cc4s3)S(C)(=O)=O)o2)NC(=O)NC1=O (stereo partly drawn) [Example 219, 5-({5-[(6-{3-[(3R)-3-hydroxypyrrolidine-1-carbonyl]phenyl}-1,3-benzothiazol-2-yl) (methanesulfonyl)methyl]-1,3,4-oxadiazol-2-yl}methyl)-5-methyl-imidazolidine-2,4-dione] | 2300 nM | 2 nM
CS(=O)(=O)C(c1nnc(CNS(N)(=O)=O)o1)c1nc2ccc(Br)cc2s1 (stereo not shown) [Example 114, N-((5-((6-bromo-1,3-benzothiazol-2-yl)(methylsulfonyl)methyl)-1,3,4-oxadiazol-2-yl)methyl) sulfamide] | 220 nM | < 10 nM
COCCNC(=O)c1cccc(-c2ccc3nc(C(c4nnc(CNS(N)(=O)=O)o4)S(C)(=O)=O)sc3c2)c1 (stereo not shown) [Example 262, 3-{2-[methanesulfonyl({5-[(sulfamoylamino)methyl]-1,3,4-oxadiazol-2-yl})methyl]-1,3-benzothiazol-6-yl}-N-(2-methoxyethyl) benzamide] | 45 nM | 14 nM
Cn1cc(-c2ccc3nc(C(c4nnc(CNS(N)(=O)=O)o4)S(C)(=O)=O)sc3c2)cn1 (stereo not shown) [Example 113, N-((5-((6-(1-methyl-1H-pyrazol-4-yl)-1,3-benzothiazol-2-yl)(methylsulfonyl)methyl)-1,3,4-oxadiazol-2-yl)methyl) sulfamide] | 220 nM | < 10 nM
CN(C(=O)c1cccc(-c2ccc3nc(C(c4nnc(CC5(C)NC(=O)NC5=O)o4)S(C)(=O)=O)sc3c2)c1)C1CC1 (stereo not shown) [Example 221, N-cyclopropyl-3-{2-[methanesulfonyl({5-[(4-methyl-2,5-dioxoimidazolidin-4-yl)methyl]-1,3,4-oxadiazol-2-yl})methyl]-1,3-benzothiazol-6-yl}-N-methylbenzamide] | 25 nM | 1 nM
CS(=O)(=O)C(c1nnc(CNS(N)(=O)=O)o1)c1nc2cc(-c3ccc(C(=O)N4CCOCC4)cc3)ccc2s1 (stereo not shown) [Example 243, N-({5-[methanesulfonyl({5-[4-(morpholine-4-carbonyl)phenyl]-1,3-benzothiazol-2-yl})methyl]-1,3,4-oxadiazol-2-yl}methyl)aminosulfonamide] | 119 nM | 5 nM
NCCS(=O)(=O)C(c1nnc(CNS(N)(=O)=O)o1)c1nc2ccc(-c3ccc(C(=O)N4CCOCC4)cc3)cc2s1 (stereo not shown) [Example 183, N-{[5-([(2-Aminoethyl)sulfonyl]{6-[4-(4-morpholinylcarbonyl)phenyl]-1,3-benzothiazol-2-yl}methyl)-1,3,4-oxadiazol-2-yl]methyl}sulfuric diamide] | 178 nM | 14 nM
CC1(Cc2nnc(C(c3nc4ccc(-c5cccc(C(=O)N6CC[C@H](O)C6)c5)cc4s3)S(C)(=O)=O)o2)NC(=O)NC1=O (stereo partly drawn) [Example 207, 5-({5-[(6-{3-[(3S)-3-hydroxypyrrolidine-1-carbonyl]phenyl}-1,3-benzothiazol-2-yl) (methanesulfonyl)methyl]-1,3,4-oxadiazol-2-yl}methyl)-5-methyl-imidazolidine-2,4-dione] | 370 nM | 22 nM
CC(O)CNC(=O)Cc1nnc(C(c2nc3ccc(-c4ccc(C(=O)N5CCOCC5)cc4)cc3s2)S(=O)(=O)Cc2ccccc2)o1 (stereo not shown) [Example 179, 2-(5-((benzylsulfonyl)(6-(4-(4-morpholinylcarbonyl)phenyl)-1,3-benzothiazol-2-yl)methyl)-1,3,4-oxadiazol-2-yl)-N-(2-hydroxypropyl) acetamide] | 518 nM | < 10 nM
CS(=O)(=O)C(c1nnc(CNS(N)(=O)=O)o1)c1nc2ccc(-c3cnn(CCN4CCOCC4)c3)cc2s1 (stereo not shown) [Example 132, N-((5-((methylsulfonyl)(6-(1-(2-(4-morpholinyl)ethyl)-1H-pyrazol-4-yl)-1,3-benzothiazol-2-yl)methyl)-1,3,4-oxadiazol-2-yl)methyl) sulfamide] | 22300 nM | 32 nM
CC1(Cc2nnc(C(c3nc4ccc(-c5cccc(C(=O)NC6CC(F)(F)C6)c5)cc4s3)S(C)(=O)=O)o2)NC(=O)NC1=O (stereo not shown) [Example 223, N-(3,3-difluorocyclobutyl)-3-{2-[methanesulfonyl({5-[(4-methyl-2,5-dioxo-imidazolidin-4-yl)methyl]-1,3,4-oxadiazol-2-yl})methyl]-1,3-benzothiazol-6-yl} benzamide] | 55 nM | 32 nM
CS(=O)(=O)C(c1nnc(CNS(N)(=O)=O)o1)c1nc2ccc(-c3cccc(C(=O)N4CCC(O)CC4)c3)cc2s1 (stereo not shown) [Example 255, N-{[5-({6-[3-(4-hydroxypiperidine-1-carbonyl)phenyl]-1,3-benzothiazol-2-yl} (methanesulfonyl)methyl)-1,3,4-oxadiazol-2-yl]methyl} aminosulfonamide] | 46 nM | 2 nM
